According to patent publication US10501413B2, “Inhibitors of the Notch transcriptional activation complex and methods for use of the same” (UNIVERSITY OF MIAMI, priority 2015, dated 2019):

Tests used:
[1] = tested on: NICD in OE33 and 786-0 cells; assay: Western analysis of NICD levels; format: cell-based, human; settings: OE33 and 786-0 cell lysates
Protocol: The effect of inhibitor treatment on the assembly of the NTC in cells was investigated.
Protein analysis was carried out using conventional SDS-PAGE and transfer techniques. Blots were probed with the indicated antibody (“Ab”), using standard conditions, and detected using enhanced chemiluminescence (“ECL”). The following Ab were used: anti-Notch1 (ab52627, abcam), anti-Notch1^val1744 (4147S, Cell Signaling Technology) and anti-GAPDH (ab9483, Abcam).

CSL = CSL (Homo sapiens, UniProt Q06330); assay: Surface plasmon resonance binding to CSL; settings: SPR, equilibrium response fitted to 1:1 binding model
Sequence of CSL (Q06330 whole entry): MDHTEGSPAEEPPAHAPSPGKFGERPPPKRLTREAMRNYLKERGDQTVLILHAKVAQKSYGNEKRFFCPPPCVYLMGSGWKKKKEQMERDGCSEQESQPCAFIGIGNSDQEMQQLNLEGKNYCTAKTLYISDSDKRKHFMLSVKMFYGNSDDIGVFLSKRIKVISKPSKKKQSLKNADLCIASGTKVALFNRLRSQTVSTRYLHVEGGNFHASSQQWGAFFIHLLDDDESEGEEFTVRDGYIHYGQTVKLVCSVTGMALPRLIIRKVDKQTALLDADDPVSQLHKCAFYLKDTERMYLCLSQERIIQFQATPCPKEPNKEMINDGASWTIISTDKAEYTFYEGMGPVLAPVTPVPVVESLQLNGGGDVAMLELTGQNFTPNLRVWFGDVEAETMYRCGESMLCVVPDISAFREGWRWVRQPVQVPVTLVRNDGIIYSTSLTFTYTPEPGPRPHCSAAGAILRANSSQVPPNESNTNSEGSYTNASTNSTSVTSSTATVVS
Protocol: (§1) The inhibitors described herein were subjected to surface plasmon resonance (“SPR”) to determine their binding constants to the NICD and CSL components of the NTC. In particular, the target protein (NICD1) was immobilized on the dextran surface of the SPR sensor chip. Through a microflow system, a solution with the inhibitor was injected over the immobilized protein layer. The inhibitor bound to the immobilized protein, which led to an increase in SPR signal, indicating association of the ligand to the target protein. After 45 seconds, buffer solution was injected on the microfluidics that dissociated the bound complex between the ligand and the inhibitor. As the inhibitor dissociated from the ligand, a decrease in SPR signal was observed. The equilibrium dissociation constant KD was determined by plotting the equilibrium response (Req) as a function of the concentration of the ligand, and fitting the data to a 1:1 binding model. The results are listed in […].

[2] = tested on: esophageal adenocarcinoma PDX tumors; assay: Esophageal adenocarcinoma patient-derived xenograft (PDX); format: in vivo, mouse
Protocol: The effect of the inhibitors of the disclosure on the growth of an established tumor also was investigated using two independent esophageal adenocarcinoma patient-derived xenograft (“PDX”) models. Tumors were established in NSG mice to the size of 250 mm^3 prior to the initiation of treatment. Mice were dosed daily via intraperitoneal (“IP”) injection with either Inhibitor No. 1-134-83 (15 mg/kg) or DAPT (20 mg/kg), and compared to DMSO vehicle control. […] Following 24 days of treatment, tumors were harvested and Notch-target gene transcription was evaluated. […] (FIG. 4) Six-week-old NOD-SCID gamma (“NSG”) mice were purchased from Jackson Laboratories and CD-1 Nude mice were purchased from Charles River Laboratories. For the cell line based xenografts assay, 5×10^6 OE19 cells in 200 μl serum-free culture medium were injected subcutaneously per mouse. The mice in the treatment group were injected with 15 mg/kg of Inhibitor No. 1-134-83 daily, and the mice in the control group were injected with the same volume of vehicle (DMSO). Subcutaneous tumor growth was measured once every 4 days using calipers along with body weight. The experiment was discontinued on day 28. PDX cancer models were established, as described in Zhang et al, Establishment of Patient-Derived Xenograft (PDX) Models of Human Breast Cancer, Current Protocols in Mouse Biology, 3:21-29 (2013), in NSG mice. Briefly, 10 mm^3 pieces of primary EAC29 PDX tumor were transplanted subcutaneously into the flanks of NSG mice using a 13G telescopic needle. When the tumors reached 200 mm^3, the mice were split into two uniform groups for treatment. Compound 1-134-83 (15 mg/kg) and vehicle were administered daily by inraperitoneal (“IP”) injection for 24 days. Tumor growth was monitored every 4 days and tumor volume was measured by the formula: Volume=(S×S×L)/2, where S and L are the short and long dimensions. The xenograft tumors were harvested, weighed and samples were subjected to histological examination and by qPCR.

NICD1 = target: T1, NICD1 (Homo sapiens, UniProt P46531); assay: Surface plasmon resonance binding to immobilized NICD; settings: SPR, equilibrium response fitted to 1:1 binding model
T1 construct: the intracellular domain of Notch (“NICD”)
T1 sequence (P46531 1754-2555 limits assumed): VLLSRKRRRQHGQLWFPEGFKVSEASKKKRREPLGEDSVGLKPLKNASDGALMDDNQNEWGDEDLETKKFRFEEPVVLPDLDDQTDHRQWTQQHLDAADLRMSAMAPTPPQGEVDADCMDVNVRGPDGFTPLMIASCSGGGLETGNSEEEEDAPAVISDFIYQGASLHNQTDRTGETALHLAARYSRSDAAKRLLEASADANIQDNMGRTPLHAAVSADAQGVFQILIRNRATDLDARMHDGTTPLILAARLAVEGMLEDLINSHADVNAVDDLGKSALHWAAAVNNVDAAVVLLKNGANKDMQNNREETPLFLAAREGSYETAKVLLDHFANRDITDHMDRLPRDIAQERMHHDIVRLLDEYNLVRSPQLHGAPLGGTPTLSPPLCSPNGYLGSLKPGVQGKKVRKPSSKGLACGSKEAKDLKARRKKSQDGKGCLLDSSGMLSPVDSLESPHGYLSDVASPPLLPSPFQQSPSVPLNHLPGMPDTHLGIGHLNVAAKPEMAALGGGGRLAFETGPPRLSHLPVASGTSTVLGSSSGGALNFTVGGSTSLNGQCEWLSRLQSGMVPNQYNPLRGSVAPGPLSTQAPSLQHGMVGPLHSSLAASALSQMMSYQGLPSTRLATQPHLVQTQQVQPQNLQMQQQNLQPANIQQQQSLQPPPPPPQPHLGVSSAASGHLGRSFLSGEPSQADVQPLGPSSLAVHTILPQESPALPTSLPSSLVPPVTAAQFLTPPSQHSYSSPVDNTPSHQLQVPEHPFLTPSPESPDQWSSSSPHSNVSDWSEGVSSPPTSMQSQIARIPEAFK
Protocol: as §1

[3] = target: T2, Notch transcriptional activation complex (CSL, Notch1, MAML1 on DNA) (Homo sapiens, UniProt P46531+Q06330); assay: Notch complex assembly assay (ALPHASCREEN); format: biochemical
T2 construct: the intracellular domain of Notch (“NICD”); made in house; host or cells: SF21 insect cells (baculovirus)
T2 sequence (P46531 1754-2555 limits assumed): as above
T2 sequence (Q06330 whole entry, the tested form may be a part): as the sequence (Q06330 whole entry) above
Excerpt: An in vitro assay was developed to monitor the assembly of the Notch transcriptional complex (“NTC”) on DNA. The NTC, which includes the Notch, Mastermind (“MAML1”), and CSL proteins, binds to a specific DNA sequence in a CSL-dependent manner. For the assay, baculovirus produced CSL, Notch, and MAML1 were mixed together with a biotinylated DNA oligomer containing the CSL target sequence. Assembly of the NTC on DNA was then monitored with the proximity-based ALPHASCREEN (Perkin Elmer) using streptavidin and protein A beads (FIGS. 1A and 1B). A signal results when MAML1 is recruited to CSL bound DNA.
All recombinant proteins were expressed using baculovirus expression vectors in SF21 cells and purified. Unless otherwise stated, all assays contained 125 fmol of double stranded oligonucleotide, CSL, Notch1 and MAML1 proteins. Reactions were carried out in Tris-buffered saline with 0.1% Tween (“TBS-T”) buffer containing 0.2% bovine serum albumin (“BSA”) and 100 ug/mL salmon sperm DNA. Briefly, the Notch complex was assembled on a biotinylated double stranded (“DS”) oligonucleotide harboring one CSL binding site (5′-[…]-3′). Complex assembly was quantitated using ALPHASCREEN technology (Perkin Elmer). Proteins in the complexes were detected using specific antibodies to either MAML1 (Cell signaling, D3K7B), Notch1 (Abcam, 52627) or CSL (anti-His, Abcam 18184). Streptavidin conjugated acceptor beads (Perkin Elmer, 6760002) were used to bind the DS oligonucleotide, and Protein-A conjugated donor beads (Perkin Elmer, 6760137) were used to detect antibody-coated proteins. For screening compounds, Notch transcriptional activation complex (“NTC”) components were added to wells that already contained the inhibitor to be assayed and allowed to incubate for 30 minutes. The ALPHASCREEN plate (Perkin Elmer, 6008350) was then read on an Envision Plate reader (Perkin Elmer) as specified by the manufacturer.
Determination of Equilibrium Dissociation Constants (KD) and Half Maximal Inhibitory Concentrations (IC50)

`CCOC(=O)COc1ccc(/C=C2\SC(=S)NC2=O)cc1OC` [1-134-83] was tested, and the “levels of NICD in cells” value [1] was “does not change”, the Kd (CSL) was 8 ± 2 µM and the “weight loss or visible signs of stress” value ([2]; NSG mice, 15 mg/kg daily IP) was “without any significant weight loss or other visible signs of stress”. The “growth of established tumor” value ([2]; NSG mice, two PDX models, daily IP, 1-134-83 15 mg/kg, DAPT 20 mg/kg) was “significantly stunted growth”, the “decrease in tumor volume by the experimental endpoint” value ([2]; PDX tumor, versus vehicle) was “three-fold” and the “transcription of control gene (TBP2) in tumors” value ([2]; treated PDX tumors, qPCR) was “unaffected”. For the same compound, the “level of Notch target genes (Hes1, HeyL, Notch3) in tumors” value ([2]; tumors harvested after 24 days of treatment, qPCR) was “dramatically reduced”, the Kd (NICD1) was 11 ± 3 µM and the IC50 [3] was 26 µM.
